Source: patent publication US10072025B2, “Ethyl N-boc piperidinyl pyrazolo pyridones as Janus kinase inhibitors” (Merck Sharp & Dohme Corp., priority 2014, dated 2018)
Where two headings read alike, the source gives them in different places.

Experiments:
[1] = target: JAK1 (Homo sapiens (Human), UniProt P23458); assay: Jak Biochemical HTRF Assay (JAK1)
Procedure: (§1) Jak Biochemical HTRF Assay Protocol
(§2) The ability of compounds to inhibit the activity of JAK1, JAK2, JAK3, and Tyk2 was measured using a recombinant purified GST-tagged catalytic domain for each enzyme (Invitrogen JAK1 #M4290, JAK2 #M4290, JAK3 #M4290, Tyk2 #M4290) in an HTRF format biochemical assay. […] The basic assay protocol is as follows: First, 250 nL of diluted compounds in DMSO were dispensed into the wells of a dry 384-well Black plate (Greiner #781076) using a Labcyte Echo 555 acoustic dispenser. Subsequent reagent additions employed an Agilent Bravo. Next, 18 μL of 1.11× enzyme and 1.11× substrate in 1× assay buffer (Invitrogen kinase buffer # PV3189, 2 mM DTT, 0.05% BSA) were added to the wells and shaken and then preincubated for 30 minutes at room temperature to allow compound binding to equilibrate. After equilibration, 2 μL of 10×ATP in 1× assay buffer was added to initiate the kinase reaction and the plates were shaken and then incubated at room temperature for 120 minutes. At the end of the incubation, 20 μL of 2× stop buffer (streptavidin-Dylight 650 (Thermo #84547B/100 mL), Eu-tagged pY20 antibody (Perkin Elmer #AD0067), EDTA, HEPES, and Triton) was added to quench the reaction. Plates were shaken and centrifuged and then incubated 60 minutes at room temperature and then read on a Perkin Elmer Envision (Xex=337 nm, λem=665 and 615 nm, TRF delay time=20 μs). HTRF signal=10,000*665 nm reading/615 nm reading. After normalization to untreated controls, the percent inhibition of the HTRF signal at each compound concentration was calculated. The plot of percent inhibition versus the log of compound concentration was fit with a 4-parameter dose response equation to calculate IC50 values.

[2] = target: JAK2 (Homo sapiens (Human), UniProt O60674); assay: Jak Biochemical HTRF Assay (JAK2); conditions: recombinant purified GST-tagged catalytic domain, [ATP] 8.5 μM, [E] 0.052 nM
Procedure: as §1, §2

[3] = recombinant purified GST-tagged catalytic domain, HTRF, [ATP] 31.8 μM, [E] 1.405 nM

Sequence of JAK1 (P23458 875-1153): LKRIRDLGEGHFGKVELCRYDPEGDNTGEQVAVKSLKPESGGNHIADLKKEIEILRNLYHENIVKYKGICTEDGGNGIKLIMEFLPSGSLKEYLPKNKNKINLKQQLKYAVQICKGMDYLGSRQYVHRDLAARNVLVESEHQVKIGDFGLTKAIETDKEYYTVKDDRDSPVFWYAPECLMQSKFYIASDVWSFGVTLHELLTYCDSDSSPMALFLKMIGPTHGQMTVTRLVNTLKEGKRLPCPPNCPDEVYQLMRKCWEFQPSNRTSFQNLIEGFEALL
Sequence of JAK2 (O60674 849-1124): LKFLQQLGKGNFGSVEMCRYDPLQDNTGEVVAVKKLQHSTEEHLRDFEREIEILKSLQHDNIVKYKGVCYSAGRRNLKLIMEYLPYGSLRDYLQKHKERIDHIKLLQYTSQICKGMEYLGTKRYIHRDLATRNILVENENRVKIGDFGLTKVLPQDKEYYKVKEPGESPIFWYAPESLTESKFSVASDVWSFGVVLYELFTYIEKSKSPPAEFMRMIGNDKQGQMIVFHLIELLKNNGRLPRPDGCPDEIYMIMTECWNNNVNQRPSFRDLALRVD

SMILES | IC50 [1, 3] [nM] | IC50 [2] [nM] | IC50 [1] [nM]
CCC1(n2nc(Nc3ccc(C(=O)N4CCOC(C)(C)C4)c(C)c3)c3c(=O)[nH]ccc32)CCN(C(=O)OC(C)(C)C)CC1 [Example 3-2, tert-butyl 4-[3-({4-[(2,2-dimethylmorpholin-4-yl)carbonyl]-3-methylphenyl}amino)-4-oxo-4,5-dihydro-1H-pyrazolo[4,3-c]pyridin-1-yl]-4-ethylpiperidine-1-carboxylate] | 0.61 | 0.75 | 
CCC1(n2nc(Nc3ccc(S(C)(=O)=O)cc3)c3c(=O)[nH]ccc32)CCN(C(=O)OC(C)(C)C)CC1 [Example 1-3, tert-butyl 4-ethyl-4-(3-(4-(methylsulfonyl)phenyl-amino)-4-oxo-4,5-dihydropyrazolo[4,3-c]pyridin-1-yl)piperidine-1-carboxylate] | 0.12 | 0.64 | 
CCc1cc(Nc2nn(C3(CC)CCN(C(=O)OC(C)(C)C)CC3)c3cc[nH]c(=O)c23)ccc1C(=O)N1CCSCC1 [Example 2-29, tert-butyl 4-ethyl-4-(3-(3-ethyl-4-(thiomorpholine-4-carbonyl)phenylamino)-4-oxo-4,5-dihydropyrazolo[4,3-c]pyridin-1-yl) piperidine-1-carboxylate] | 1.79 | 2.72 | 
CCC1(n2nc(Nc3ccc([C@@]4(C(F)(F)F)CCCN4)cc3)c3c(=O)[nH]ccc32)CCN(C(=O)OC(C)(C)C)CC1 (single isomer, unassigned) [Example 2-34, (R or S)-tert-butyl 4-ethyl-4-(4-oxo-3-(4-(2-(trifluoromethyl)pyrrolidin-2-yl)phenylamino)-4,5-dihydropyrazolo[4,3-c]pyridin-1-yl) piperidine-1-carboxylate] | 2.5 | 2.5 | 
CCC1(n2nc(Nc3ccc(C(=O)N4[C@H](C)COC[C@H]4C)c(C)c3)c3c(=O)[nH]ccc32)CCN(C(=O)OC(C)(C)C)CC1 (single isomer, unassigned) [Example 2-20, tert-butyl 4-(3-(4-((3R,5R or 3S,5S)-3,5-dimethylmorpholine-4-carbonyl)-3-methylphenylamino)-4-oxo-4,5-dihydropyrazolo[4,3-c]pyridin-1-yl)-4-ethylpiperidine-1-carboxylate] | 0.79 |  | 
CCC1(n2nc(Nc3ccc(C(=O)N4CCOCC4)c(C)c3)c3c(=O)[nH]ccc32)CCN(C(=O)OC(C)(C)C)CC1 [Example 2-9, tert-butyl 4-ethyl-4-(3-((3-methyl-4-(morpholine-4-carbonyl)phenyl)amino)-4-oxo-4,5-dihydro-1H-pyrazolo[4,3-c]pyridin-1-yl) piperidine-1-carboxylate] | 0.37 | 0.47 | 
CCC1(n2nc(Nc3ccc(C(=O)N4CCOC[C@@H]4C)c(C)c3)c3c(=O)[nH]ccc32)CCN(C(=O)OC(C)(C)C)CC1 [Example 2-6, (S)-tert-butyl 4-ethyl-4-(3-((3-methyl-4-(3-methylmorpholine-4-carbonyl)phenyl)amino)-4-oxo-4,5-dihydro-1H-pyrazolo[4,3-c]pyridin-1-yl) piperidine-1-carboxylate] | 0.51 | 0.51 | 
CCC1(n2nc(Nc3ccc(C(=O)N4C5CCC4COC5)c(C)c3)c3c(=O)[nH]ccc32)CCN(C(=O)OC(C)(C)C)CC1 [Example 2-13, tert-butyl 4-(3-((4-(3-oxa-8-azabicyclo [3.2.1]octane-8-carbonyl)-3-methylphenyl)amino)-4-oxo-4,5-dihydro-1H-pyrazolo[4,3-c]pyridin-1-yl)-4-ethylpiperidine-1-carboxylate] |  | 0.54 | 0.52
CCC1(n2nc(Nc3ccc4c(c3)CN(C(C)(C)C)S4(=O)=O)c3c(=O)[nH]ccc32)CCN(C(=O)OC(C)(C)C)CC1 [Example 1-2] | 2.86 | 3.4 | 
CCc1cc(Nc2nn(C3(CC)CCN(C(=O)OC(C)(C)C)CC3)c3cc[nH]c(=O)c23)ccc1C(=O)N1CCOCC1 [Example 2-24, tert-butyl 4-ethyl-4-(3-((3-ethyl-4-(morpholine-4-carbonyl)phenyl)amino)-4-oxo-4,5-dihydro-1H-pyrazolo[4,3-c]pyridin-1-yl) piperidine-1-carboxylate] | 0.47 | 0.84 | 
CCC1(n2nc(Nc3ccc(S(=O)(=O)N(C)C)cc3)c3c(=O)[nH]ccc32)CCN(C(=O)OC(C)(C)C)CC1 [Example 1-1, tert-butyl 4-(3-(4-(N,N-dimethylsulfamoyl)phenylamino)-4-oxo-4,5-dihydropyrazolo[4,3-c]pyridin-1-yl)-4-ethylpiperidine-1-carboxylate] | 0.2 | 0.4 | 
CCC1(n2nc(Nc3ccc(C(=O)N4CCCOC(C)C4)c(C)c3)c3c(=O)[nH]ccc32)CCN(C(=O)OC(C)(C)C)CC1 (single isomer, unassigned) [Example 3-23, tert-butyl 4-ethyl-4-[3-({3R or 3S-methyl-4-[(2-methyl-1,4-oxazepan-4-yl)carbonyl]phenyl}amino)-4-oxo-4,5-dihydro-1H-pyrazolo [4,3-c]pyridin-1-yl] piperidine-1-carboxylate] |  | 0.7 | 
CCC1(n2nc(Nc3ccc(C(=O)N4CCCOC(C)C4)c(C)c3)c3c(=O)[nH]ccc32)CCN(C(=O)OC(C)(C)C)CC1 (single isomer, unassigned) [Example 3-22, tert-butyl 4-ethyl-4-[3-({3R or 3S-methyl-4-[(2-methyl-1,4-oxazepan-4-yl)carbonyl]phenyl}amino)-4-oxo-4,5-dihydro-1H-pyrazolo [4,3-c]pyridin-1-yl] piperidine-1-carboxylate] |  | 0.87 | 
CCC1(n2nc(Nc3ccc(C(=O)N4[C@H](C)COC[C@@H]4C)c(C)c3)c3c(=O)[nH]ccc32)CCN(C(=O)OC(C)(C)C)CC1 [Example 2-18, tert-butyl 4-(3-(4-((3S,5R)-3,5-dimethylmorpholine-4-carbonyl)-3-methylphenylamino)-4-oxo-2,3,4,5-tetrahydropyrazolo[4,3-c]pyridin-1-yl)-4-ethylpiperidine-1-carboxylate] | 0.61 |  | 
CCC1(n2nc(Nc3ccc(C(=O)N4[C@@H](C)COC[C@@H]4C)c(C)c3)c3c(=O)[nH]ccc32)CCN(C(=O)OC(C)(C)C)CC1 (single isomer, unassigned) [Example 2-19, tert-butyl 4-(3-(4-((3S,5S or 3R,5R)-3,5-dimethylmorpholine-4-carbonyl)-3-methylphenylamino)-4-oxo-4,5-dihydropyrazolo[4,3-c]pyridin-1-yl)-4-ethylpiperidine-1-carboxylate] | 0.85 |  | 
CCC1(n2nc(Nc3ccc(S(=O)(=O)N4CCC[C@@H]4C)cc3)c3c(=O)[nH]ccc32)CCN(C(=O)OC(C)(C)C)CC1 (single isomer, unassigned) [Example 2-38, (S or R)-tert-butyl 4-ethyl-4-(3-(4-(2-methylpyrrolidin-1-ylsulfonyl)phenylamino)-4-oxo-4,5-dihydropyrazolo[4,3-c]pyridin-1-yl) piperidine-1-carboxylate] | 2.38 |  | 
CCC1(n2nc(Nc3ccc(S(=O)(=O)N4CCC[C@H]4C)cc3)c3c(=O)[nH]ccc32)CCN(C(=O)OC(C)(C)C)CC1 (single isomer, unassigned) [Example 2-39, (R or S)-tert-butyl 4-ethyl-4-(3-(4-(2-methylpyrrolidin-1-ylsulfonyl)phenylamino)-4-oxo-4,5-dihydropyrazolo[4,3-c]pyridin-1-yl) piperidine-1-carboxylate] | 2.13 |  | 
